# Measurements published in paper PMC8752738, “A propolis-derived small molecule ameliorates metabolic syndrome in obese mice by targeting the CREB/CRTC2 transcriptional complex” (Nature Communications, 2022).
# “And” between values parts separate entries of the source, which are not always exact repeats. Equal entries are not always repeated.
# Tests used:
# [1] = target: T1, HIS-CRTC2-S171A proteins (Homo sapiens, UniProt Q53ET0, S171A); experiment: Surface plasmon resonance, immobilized HIS-CRTC2-S171A; format: binding
# T1 construct: made in house; host or cells: E. coli
# [2] = Histological analysis of liver and adipose tissue; format: in vivo, mouse; conditions: DIO and db/db mice, 20 mg/kg, 5 weeks
# Procedure: Fig. 5 APC improves hyperlipidemia of obese mice. DIO mice were continuously i.p. injected with control vehicle or APC with indicated doses (APC, 0, 10, and 20 mg/kg) or vehicle (Ctrl) one time daily for 5 weeks (n = 5–9). a Body-weight curves of these mice (left). Area under curve (AUC) analysis of curves is shown as a scatter chart at the right. […] Data are represented as mean ± SEM. *P < 0.05; **P < 0.01; P values were determined by one-way ANOVA followed Dunnett’s multiple comparisons test. The triglyceride (TG) contents in the serum (c) and liver (d) of these mice. The contents of (e) total cholesterol (TC), LDL cholesterol (LDL-C), and HDL cholesterol (HDL-C), (f) VLDL-C, and (g) nonesterified fatty acid (NEFA) in the serum of these mice. h The contents of hepatic NEFA and (i) glycerol in these mice, which were normalized by hepatic protein levels as determined by BCA assay. Data are represented as mean ± SEM (n = 5–6). *P < 0.05; **P < 0.01; P values were determined by one-way ANOVA followed Dunnett’s multiple comparisons test. j Histological analysis of liver and epididymis fat (WAT) from DIO mice treated with APC (20 mg/kg) or vehicle for 5 weeks. Tissues were stained with hematoxylin and eosin. Scale bars represent 100 μm. […]
# [3] = system: primary hepatocytes; experiment: MTT assay, primary hepatocytes; format: cell-based, mouse; conditions: for Relative MTT absortance-48H, mean: n=5 (0 μM = 100); for Relative MTT absortance-48H: Supp. fig.3b, individual replicates
# Procedure: Primary hepatocytes were exposed to APC at indicated concentrations for 48-h, then co-incubated with methyl thiazolyl tetrazolium (0.5 mg/mL in PBS, Sigma) solution for 5-h. After removing the solution, the purple crystals were dissolved using DMSO, and the absorbance was measured at 550 nm.
# [4] = target: T2, MYC-CREB-ZIP / FLAG-CRTC2 interaction (Homo sapiens, UniProt P16220); experiment: Immunoprecipitation of FLAG-CRTC2-WT with MYC-CREB-ZIP fragment; format: biochemical; conditions: for Relative FLAG/MYC in MYC-IP fraction: Fig 3c replicates, FSK +
# T2 construct: expressed in transfected cells; host or cells: HEK293
# T2 sequence (P16220 269-327 limits assumed): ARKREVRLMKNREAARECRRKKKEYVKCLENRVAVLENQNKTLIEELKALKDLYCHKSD
# Text: Fig. 3 APC inhibits CRTC2 interacting with CREB-ZIP and reduces acetyltransferase activity of CBP by binding with CREB protein directly. a Isothermal titration calorimetry (ITC) of HIS-CREB protein solution titrated into APC solution. The bottom solid line represents a nonlinear least-squares fitted by a single-site binding model. One of two independent experiments is shown here. b IC50 of APC inhibitory activity detected by CREB–CRTC2 two-hybrid assay in HEK293T cells (n = 3 per treatment, data are represented as mean ± SEM). One of three independent experiments is shown here. c Immunoprecipitation analysis of FLAG-CRTC2-WT recovered by anti-MYC antibody from HEK293 cells co-transfected with plasmids for a Myc-Creb-Zip fragment and the FLAG-Crtc2-Wt, stimulated by FSK (10 nM) for 2-h before harvest. APC (1–10 μM) was included in immunoprecipitation mixtures as indicated. Top represents one of three independent experiments, and the relative gray density of FLAG normalized to MYC in MYC-IP- factions is shown as a bar graph (bottom, n = 3). Data are represented as mean ± SEM; P values were determined by one-way ANOVA followed Dunnett’s multiple comparisons test. d Immunoblotting analysis of the acetyltransferase activity of CBP. The protein levels of H3K27ac and total Histone H3 were determined using specific antibodies from HEK293 cell lysate overexpressing HA-Cbp plasmid. Pretreatment with trichostatin (TSA, 0.5 μM) for 1 h prior to incubation with APC (2, 10 μM) for another 2-h. The top represents one of three independent experiments, and the relative gray density of H3K27ac normalized to total Histone H3 in cell lysate is shown as a bar graph (bottom, n = 3). Data are represented as mean ± SEM; P values were determined by one-way ANOVA followed Dunnett’s multiple comparisons test. ns, P > 0.05; *P < 0.05; **P < 0.01. Sources data for this figure are provided as source data file.
# T1 sequence (Q53ET0 whole entry S171A): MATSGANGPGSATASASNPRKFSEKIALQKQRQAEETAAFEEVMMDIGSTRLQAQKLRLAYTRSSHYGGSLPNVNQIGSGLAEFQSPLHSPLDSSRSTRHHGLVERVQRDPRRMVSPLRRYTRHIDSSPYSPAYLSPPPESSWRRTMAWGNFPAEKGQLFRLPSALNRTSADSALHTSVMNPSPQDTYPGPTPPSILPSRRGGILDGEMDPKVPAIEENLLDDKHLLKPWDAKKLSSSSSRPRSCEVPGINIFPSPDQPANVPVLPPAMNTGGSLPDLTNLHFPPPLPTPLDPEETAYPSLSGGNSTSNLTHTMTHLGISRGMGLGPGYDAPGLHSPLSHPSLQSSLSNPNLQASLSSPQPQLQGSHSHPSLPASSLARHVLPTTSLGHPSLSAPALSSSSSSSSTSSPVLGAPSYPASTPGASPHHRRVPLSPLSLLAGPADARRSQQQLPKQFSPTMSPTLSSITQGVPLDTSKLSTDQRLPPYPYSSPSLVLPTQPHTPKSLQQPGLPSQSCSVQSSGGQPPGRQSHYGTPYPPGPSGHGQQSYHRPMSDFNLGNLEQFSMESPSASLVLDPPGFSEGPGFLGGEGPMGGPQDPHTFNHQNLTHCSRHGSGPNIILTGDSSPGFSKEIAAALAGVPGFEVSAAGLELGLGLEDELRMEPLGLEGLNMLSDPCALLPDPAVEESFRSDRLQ
smiles,measurement,setting,value
"CC(C)=CCc1cc(C=CC(=O)O)cc(CC=C(C)C)c1O [APC, 3,5-diprenyl-4-hydroxycinnamic acid]",affinity to CRTC2 (SPR),[1],no affinity
same,sizes of lipid droplets in liver and adipose tissues,[2],remarkably reduced
same,"Relative MTT absortance-48H, mean",[3]; APC 1 μM,102
same,"Relative MTT absortance-48H, mean",[3]; APC 5 μM,103.2
same,"Relative MTT absortance-48H, mean",[3]; APC 25 μM,101.9
same,"Relative MTT absortance-48H, mean",[3]; APC 100 μM,105.7
same,hepatocyte viability,"[3]; APC up to 100 μM, 48-h",did not impair hepatocyte viability
same,Relative MTT absortance-48H,[3]; APC 1 uM,101.3514 and 105.1051 and 97.5976 and 102.8529 (2×)
same,Relative MTT absortance-48H,[3]; APC 5 uM,99.8499 and 98.3484 and 103.6036 and 105.1051 and 108.8589
same,Relative MTT absortance-48H,[3]; APC 25 uM,96.6066 and 104.3544 and 100.6006 and 99.6096 and 108.1081
same,Relative MTT absortance-48H,[3]; APC 100 uM,107.3574 and 101.1111 and 106.6066 and 109.6096 and 103.6036
same,FLAG-CRTC2 binding with MYC-CREB-ZIP domain,[4]; APC 1–10 μM,inhibited
same,Relative FLAG/MYC in MYC-IP fraction,[4]; APC 1 uM,3.874 and 3.872 and 3.786
same,Relative FLAG/MYC in MYC-IP fraction,[4]; APC 5 uM,3.592 and 3.454 and 3.26
same,Relative FLAG/MYC in MYC-IP fraction,[4]; APC 10 uM,2.4146 and 2.393 and 2.225
